According to US4347319A, “Microbiological epoxidation process” (priority 1980, dated 1982):
Like-named read-outs stand apart in the source and are kept apart here.

Key:
Format in all cases: biochemical
[1] = target: T1, cell fractions of Methylosinus sp. (CRL-15, NRRL B-11,202) (Methylosinus trichosporium, UniProt Q50541+Q9KX50+Q9KX51); experiment: Oxidation by cell fractions P(40), P(80), S(80); settings: for Rate of Product Formation: P(40) particulate fraction, alkene to epoxide, alkane to alcohol; for Rate of Product Formation / Oxidizing Activity (rate of oxidation) in cell fraction: 30° C.; for Conversion Rate: particulate P(40) fraction, n-propane to 2-propanol, n-butane to 2-butanol; for 100% activity, product formed (storage study) / 100% activity, product formed (pH study) / 100% activity, product formed (temperature study) / Oxidizing Activity (rate of oxidation) in cell fraction: methane to methanol, propylene to propylene oxide; for 100% activity, product formed (pH study): optimum pH 7.0; for 100% activity, product formed (temperature study): optimum temperature 35° C.; for % Distribution in Cell Fraction: propylene-epoxidizing / methane-hydroxylating activity; for Product Formed / O2 Consumed / NADH Oxidized: stoichiometry, 5.0 μ moles substrate; for Product Formed: gas chromatography; for O2 Consumed: polarographically; for NADH Oxidized: spectrophotometrically
T1 sequence (Q9KX50 40-431): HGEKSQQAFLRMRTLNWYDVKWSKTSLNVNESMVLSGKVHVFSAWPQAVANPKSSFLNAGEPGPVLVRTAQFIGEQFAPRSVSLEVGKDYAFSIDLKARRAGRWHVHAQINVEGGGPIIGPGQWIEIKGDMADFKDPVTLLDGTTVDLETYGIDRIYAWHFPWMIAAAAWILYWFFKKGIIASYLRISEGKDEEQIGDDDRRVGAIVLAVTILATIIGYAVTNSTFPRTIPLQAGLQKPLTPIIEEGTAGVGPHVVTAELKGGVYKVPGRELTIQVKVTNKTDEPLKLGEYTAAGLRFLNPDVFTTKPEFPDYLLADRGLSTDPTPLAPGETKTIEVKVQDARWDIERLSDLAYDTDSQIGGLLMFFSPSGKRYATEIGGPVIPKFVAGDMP
T1 sequence (Q50541 1-252): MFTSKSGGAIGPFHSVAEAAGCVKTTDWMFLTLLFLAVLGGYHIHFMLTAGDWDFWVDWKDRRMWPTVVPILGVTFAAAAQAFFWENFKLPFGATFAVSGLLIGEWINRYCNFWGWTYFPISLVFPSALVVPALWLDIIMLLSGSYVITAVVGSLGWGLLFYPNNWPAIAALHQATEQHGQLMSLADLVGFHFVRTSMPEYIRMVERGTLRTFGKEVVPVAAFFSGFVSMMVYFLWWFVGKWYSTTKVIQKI
T1 sequence (Q9KX51 1-256): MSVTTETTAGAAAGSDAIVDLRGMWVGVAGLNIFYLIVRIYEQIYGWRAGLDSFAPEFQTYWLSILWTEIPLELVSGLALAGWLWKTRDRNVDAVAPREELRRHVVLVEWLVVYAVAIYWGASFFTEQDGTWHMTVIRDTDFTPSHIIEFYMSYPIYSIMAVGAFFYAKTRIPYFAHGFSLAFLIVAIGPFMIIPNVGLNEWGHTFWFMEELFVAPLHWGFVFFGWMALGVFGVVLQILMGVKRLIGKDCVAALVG
Summary of the method: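 Cells washed and French-press disrupted in 25 mM K phosphate pH 7.0 with 5 mM MgCl2; particulate P(40), P(80) and soluble S(80) fractions from 40,000×g and 80,000×g spins. Methane or propylene (1:1 with O2) oxidised at 30° C with NADH; methanol/propylene oxide by GC; activity as μmoles product/h/mg protein.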

[2] = target: T2, cell fractions of Methylococcus capsulatus (Texas, ATCC 19,069) (Methylococcus capsulatus, UniProt G1UBD1+Q603F1+Q607G3); experiment: Oxidation by cell fractions P(40), P(80), S(80); settings: for Conversion Rate: particulate P(40) fraction, n-propane to 2-propanol, n-butane to 2-butanol; for Oxidizing Activity (rate of oxidation) in cell fraction: propylene to propylene oxide, methane to methanol, 30° C.; for % Distribution in Cell Fraction: propylene-epoxidizing / methane-hydroxylating activity
T2 sequence (G1UBD1 33-414): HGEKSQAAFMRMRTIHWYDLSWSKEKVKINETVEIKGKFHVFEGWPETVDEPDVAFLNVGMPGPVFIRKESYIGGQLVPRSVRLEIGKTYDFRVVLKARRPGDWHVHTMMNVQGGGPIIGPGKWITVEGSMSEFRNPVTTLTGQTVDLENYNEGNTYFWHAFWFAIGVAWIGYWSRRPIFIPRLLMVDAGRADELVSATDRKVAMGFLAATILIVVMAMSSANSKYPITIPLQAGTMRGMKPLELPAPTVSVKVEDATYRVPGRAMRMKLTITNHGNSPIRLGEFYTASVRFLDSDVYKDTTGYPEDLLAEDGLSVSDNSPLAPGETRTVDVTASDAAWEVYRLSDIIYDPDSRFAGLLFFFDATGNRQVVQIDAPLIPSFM
T2 sequence (Q607G3 1-247): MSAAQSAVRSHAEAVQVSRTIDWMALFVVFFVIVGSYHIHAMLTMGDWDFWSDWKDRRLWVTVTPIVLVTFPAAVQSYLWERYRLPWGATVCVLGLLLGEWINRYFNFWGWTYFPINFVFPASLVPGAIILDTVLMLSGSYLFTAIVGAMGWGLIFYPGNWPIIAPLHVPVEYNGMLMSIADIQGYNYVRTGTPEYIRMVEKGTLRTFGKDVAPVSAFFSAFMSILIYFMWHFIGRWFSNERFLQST
T2 sequence (Q603F1 1-260): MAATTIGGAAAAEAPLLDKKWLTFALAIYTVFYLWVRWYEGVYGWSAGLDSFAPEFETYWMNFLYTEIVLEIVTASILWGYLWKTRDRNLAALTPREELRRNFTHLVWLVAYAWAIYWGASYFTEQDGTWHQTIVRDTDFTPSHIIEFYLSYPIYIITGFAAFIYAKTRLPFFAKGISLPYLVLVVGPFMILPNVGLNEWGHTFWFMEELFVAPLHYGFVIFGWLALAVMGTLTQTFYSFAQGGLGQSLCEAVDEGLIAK

[3] = target: T3, cell fractions of Methylosinus trichosporium (OB3b, NRRL B-11,196) (Methylosinus trichosporium, UniProt Q50541+Q9KX50+Q9KX51); settings: for Conversion Rate: particulate P(40) fraction, n-propane to 2-propanol, n-butane to 2-butanol; for Oxidizing Activity (rate of oxidation) in cell fraction: propylene to propylene oxide, methane to methanol, 30° C.; for % Distribution in Cell Fraction: propylene-epoxidizing / methane-hydroxylating activity
T3 sequence (Q9KX50 40-431): T1 sequence (Q9KX50 40-431)
T3 sequence (Q50541 1-252): T1 sequence (Q50541 1-252)
T3 sequence (Q9KX51 1-256): T1 sequence (Q9KX51 1-256)
Method: Cells were washed twice with 25 mM potassium phosphate buffer, pH 7.0 containing 5 mM MgCl2. Cells were suspended in the same buffer. The cell suspensions at 4° C. were disintegrated by a single passage through a French Pressure cell (15,000 lb./in.^2) and centrifuged at 5000×g. for 15 min. to remove unbroken bacteria. The supernatant solution (crude extract) was then centrifuged at 40,000×g. for 30 min., yielding particulate P(40) and soluble S(40) fractions. The S(40) fraction was subsequently centrifuged at 80,000×g. for 60 min., yielding particulate P(80) and soluble S(80) fractions. The particulate fractions [P(40) and P(80)] were suspended in 25 mM potassium phosphate buffer, pH 7.0, containing 5 mM MgCl2 and homogenized at 4° C.
The oxidation of methane and propylene by particulate [(P)40 and (P)80] fractions and soluble [S(80)] fraction was measured at 30° C. by estimating the production of methanol and propylene oxide, respectively. The reaction mixtures contained in […]: 150 mM potassium phosphate buffer, pH 7.0 containing 5 mM MgCl2 b, 0.6 ml; 10μ moles NADH, and cellular fraction.
Reaction mixtures were contained in 10 ml vials at 4° C. Vials were sealed with rubber caps. The gaseous phase in the vials was removed using vacuum and then was replaced with a gas mixture of methane or propylene and oxygen at a 1:1, v/v ratio. Oxidation of other gaseous n-alkanes and n-alkanes was examined as described above. For liquid substrates, 10 μl of substrate was used directly.
The products of epoxidation of n-alkenes and hydroxylation of n-alkanes were assayed by flame ionization gas chromatography using a stainless steel column (12'×1/8") packed with 10% Carbowax 20 M on 80/100 Chromosorb W and Porapak Q column. The column temperature was maintained isothermally at 120° C. The carrier gas flow rate was 30 ml/min. of helium. The various products were identified by retention time comparisons and co-chromatography with authentic standards.
Specific activities were expressed as μ moles of products formed per hour per mg. protein. Concentrations of protein in various fractions were determined by the method of Lowry et al., J. Biol. Chem., 193: 265-275 (1951).

Structure (SMILES)	Rate of Product Formation [1]	Conversion Rate [1]	Conversion Rate [2]	Conversion Rate [3]	100% activity, product formed (storage study) ([1]; P(40))	100% activity, product formed (pH study) ([1]; P(40))	100% activity, product formed (temperature study) ([1]; P(40))	Oxidizing Activity (rate of oxidation) in cell fraction ([1]; P(40))	% Distribution in Cell Fraction ([1]; P(40)) [%]	Oxidizing Activity (rate of oxidation) in cell fraction ([1]; P(80))	% Distribution in Cell Fraction ([1]; P(80)) [%]	Oxidizing Activity (rate of oxidation) in cell fraction ([1]; S(80))	% Distribution in Cell Fraction ([1]; S(80)) [%]	Product Formed ([1]; P(40)) [μ moles]	O2 Consumed ([1]; P(40)) [μ moles]	NADH Oxidized ([1]; P(40)) [μ moles]	Oxidizing Activity (rate of oxidation) in cell fraction ([2]; P(40))	% Distribution in Cell Fraction ([2]; P(40)) [%]	Oxidizing Activity (rate of oxidation) in cell fraction ([2]; P(80))	% Distribution in Cell Fraction ([2]; P(80)) [%]	further results
C=CC=C [Butadiene]	0.63 μ moles/hr/mg of protein																				
CCCC [Butane]		0.89 μmoles/hr/2.0mg. of protein	0.92 μmoles/hr/2.0mg. of protein	0.79 μmoles/hr/2.0mg. of protein																	
C [Methane]	4.8 μ moles/hr/mg of protein				4.8 μmoles per hr. per mg. of prot	4.8 μmoles per hour per mg protein	5.0 μmoles per hour per mg of prot	4.8 μ moles of products formed per	88	4.2 μ moles of products formed per	12	0 μ moles of products formed per	0	4.2	4.6	4.8	3.8 μ moles of products formed per	90	3.9 μ moles of products formed per	10	Oxidizing Activity (rate of oxidation) in cell fraction ([2]; S(80)): 0 μ moles of products formed per; % Distribution in Cell Fraction ([2]; S(80)): 0%; Oxidizing Activity (rate of oxidation) in cell fraction ([3]; P(40)): 3.1 μ moles of products formed per; % Distribution in Cell Fraction ([3]; P(40)): 83%; Oxidizing Activity (rate of oxidation) in cell fraction ([3]; P(80)): 3.0 μ moles of products formed per; % Distribution in Cell Fraction ([3]; P(80)): 13%
CCC [Propane]		1.5 μmoles/hr/2.0mg. of protein	1.2 μmoles/hr/2.0mg. of protein	1.32 μmoles/hr/2.0mg. of protein																	
C=CC [Propylene]	4.1 μ moles/hr/mg of protein				4.1 μmoles per hr. per mg. of prot	4.1 μmoles per hour per mg protein	4.2 μmoles per hour per mg of prot	3.8 μ moles of products formed per	87	3.7 μ moles of products formed per	13	0 μ moles of products formed per	0	4.5	4.8	5.0	2.6 μ moles of products formed per	89	2.0 μ moles of products formed per	11	Oxidizing Activity (rate of oxidation) in cell fraction ([2]; S(80)): 0 μ moles of products formed per; % Distribution in Cell Fraction ([2]; S(80)): 0%; Oxidizing Activity (rate of oxidation) in cell fraction ([3]; P(40)): 2.8 μ moles of products formed per; % Distribution in Cell Fraction ([3]; P(40)): 82%; Oxidizing Activity (rate of oxidation) in cell fraction ([3]; P(80)): 2.5 μ moles of products formed per; % Distribution in Cell Fraction ([3]; P(80)): 18%
